Data from US11840528B2 (Hoffmann-La Roche Inc., priority 2018, dated 2023).

Experiments:
h-GABA-A α5β3γ2 [1] = biological target: T1, h-GABA-A α5β3γ2 (Homo sapiens, UniProt P18507+P31644); assay: [3H]flumazenil competition binding assay, membranes of HEK293 cells expressing GABAA receptors; conditions: displacement of [3H]-Flumazenil 0.5 nM, HEK293 cells expressing human receptors, mean of two determinations; Table 1
Method: The affinity of compounds at GABAA receptor subtypes was measured by competition for [3H]flumazenil (85 Ci/mmol; Roche) binding to HEK293 cells expressing rat (stably transfected) or human (transiently transfected) receptors of composition α1β3γ2, α2β3γ2, α3β3γ2 and α5β3γ2.
Cell pellets were suspended in Krebs-tris buffer (4.8 mM KCl, 1.2 mM CaCl2), 1.2 mM MgCl2, 120 mM NaCl, 15 mM Tris; pH 7.5; binding assay buffer), homogenized by polytron for ca. 20 sec on ice and centrifuged for 60 min at 4° C. (50000 g; Sorvall, rotor: SM24=20000 rpm). The cell pellets were resuspended in Krebs-tris buffer and homogenized by polytron for ca. 15 sec on ice. Protein was measured (Bradford method, Bio-Rad) and aliquots of 1 mL were prepared and stored at −80° C.
Assays were incubated to equilibrium for 1 hour at 4° C. and harvested onto GF/C uni-filters (Packard) by filtration using a Packard harvester and washing with ice-cold wash buffer (50 mM Tris; pH 7.5). After drying, filter-retained radioactivity was detected by liquid scintillation counting. Ki values were calculated using Excel-Fit (Microsoft) and are the means of two determinations.

h-GABA-A α5β3γ2 [2] = biological target: T1, h-GABA-A α5β3γ2; assay: Two-electrode voltage clamp electrophysiology in Xenopus laevis oocytes expressing GABAA receptors, modulation of GABA EC20 current; assay type: cell-based; parameters: host or cells: Xenopus laevis oocytes micro-injected with RNA transcripts of the subunits; conditions: Table 1; for Efficacy (GABA) %: % modulation of GABA EC20 = 100*(Fold increase-1); for Fold increase h-GABA-A α5β3γ2 oocyte: test compound at approx. 30 fold its Ki, GABA at EC20
Method: Xenopus laevis oocytes at maturation stages V-VI were used for the expression of cloned mRNA encoding GABAA receptor subunits. Oocytes ready for RNA micro-injection were bought from Ecocyte, Castrop-Rauxel, Germany and stored in modified Barth's medium (composition in mM: NaCl 88, KCl 1, NaHCO32.4, HEPES 10, MgSO4 0.82, CaNO3 0.33, CaCl2 0.33, pH=7.5) at 20° C. until the experiment.
Oocytes were plated in 96-well plates to be used in an automated instrument (Robo-ocyte, MultiChannelSystems, Reutlingen, Germany) for microinjection and electrophysiological recordings. Approximately 50 nl of an aqueous solution containing the RNA transcripts for the subunits of the desired GABAA receptor was injected into each oocyte. RNA concentrations ranged between 0.3 and 16 ng/μl/subunit and were adjusted in pilot experiments to obtain GABA responses of a suitable size and a maximal effect of the reference modulator, Beta-CCM (β-CCM), a betacarboline negative allosteric modulator (NAM) at the GABAA receptor benzodiazepine (BZD) binding site or Midazolam, a benzodiazepine positive allosteric modulator (PAM) at the GABAA receptor benzodiazepine (BZD) binding site. The concentration of the γ2 subunit encoding RNA usually was 5- to 10-fold higher than the RNAs encoding the other subunits. Oocytes were kept in modified Barth's medium (composition in mM: NaCl 88, KCl 1, NaHCO3 4, HEPES 10, MgSO4 0.82, CaNO3 0.33, CaCl2) 0.33, pH=7.5) at 20° C. until the experiment.
Electrophysiological experiments were performed on days 3 to 5 after the micro-injection of mRNA. During the experiment the oocytes were constantly superfused by a solution containing (in mM) NaCl 90, KCl 1, HEPES 5, MgCl2 1, CaCl2) 1 (pH 7.4). Oocytes were impaled by two glass microelectrodes (resistance: 0.4 MΩ) which were filled with a solution containing KCl 1M+K-acetate 1.5 M and voltage-clamped to −80 mV. The recordings were performed at room temperature using the Roboocyte two-electrode voltage clamp system (Multichannelsystem). After an initial equilibration period of 1.5 min GABA was added for 1.5 min at a concentration evoking approximately 20% of a maximal current response (EC20). After another rest interval of 2.5 min GABA was again added evoking a response of similar amplitude and shape. 0.5 min after the onset of this second GABA application the test compound, at a concentration corresponding to approximatively 30 fold its Ki, was added while GABA was still present. Current traces were recorded at a digitization rate of 10 Hz during and shortly before and after the GABA application.
Each compound and concentration was tested on at least 3 oocytes. Different oocytes were used for different compound concentrations. β-CCM, a negative allosteric modulator, or Midazolam, a positive allosteric modulators, were tested on a few (3-6) oocytes on each 96-well plate for a positive control at a maximally effective. β-CCM inhibited the GABA-evoked current by approximatively 50% (Fold increase ˜0.5), while Midazolam potentiated the GABA-induced current by approximatively 150% (Fold increase ˜2.5).
For the analysis, the digitized current traces of the first and second GABA response were superimposed and, if necessary, rescaled to equal maximal amplitudes. The ratio between the two responses during the time interval of test compound application was calculated point by point. The extremum of the resulting “ratio trace” was taken as the efficacy (“Fold increase”) of the compound expressed as “% modulation of GABA EC20” (100*(Fold increase-1)).

Ki (h-GABA-A α5β3γ2 [1]) [nM] | Efficacy (GABA) % (h-GABA-A α5β3γ2 [2]) [%] | Fold increase h-GABA-A α5β3γ2 oocyte (h-GABA-A α5β3γ2 [2]) | Compound
22.7 | 86 | 1.86 | Cc1ccc(-c2noc(C)c2Cn2ncc(-c3cnn(CC4CC4)c3)cc2=O)cn1 [Example 157, 5-(1-(cyclopropylmethyl)-1H-pyrazol-4-yl)-2-((5-methyl-3-(6-methylpyridin-3-yl)isoxazol-4-yl)methyl)pyridazin-3(2H)-one]
2.6 | 66 | 1.66 | Cc1ccc(-c2noc(C)c2Cn2ncc(-c3ccnc(N(C)C)c3)cc2=O)cn1 [Example 156, 5-(2-(dimethylamino)pyridin-4-yl)-2-((5-methyl-3-(6-methylpyridin-3-yl)isoxazol-4-yl)methyl)pyridazin-3(2H)-one]
38.4 | 181 | 2.81 | Cc1ccc(-c2noc(C)c2Cn2ncc(N3CC4(COC4)C3)cc2=O)cn1 [Example 38, 2-[[5-methyl-3-(6-methyl-3-pyridyl)isoxazol-4-yl]methyl]-5-(2-oxa-6-azaspiro[3.3]heptan-6-yl)pyridazin-3-one]
5.2 | 96 | 1.96 | Cc1ccc(-c2noc(C)c2Cn2ncc(N3CC(OC4CC4)C3)cc2=O)cn1 [Example 136, 5-[3-(cyclopropoxy)azetidin-1-yl]-2-[[5-methyl-3-(6-methyl-3-pyridyl)isoxazol-4-yl]methyl]pyridazin-3-one]
28.7 | 137 | 2.37 | COc1ncc(-c2cnn(Cc3c(-c4ccc(C)nc4)noc3C)c(=O)c2)cc1F [Example 183, 5-(5-fluoro-6-methoxypyridin-3-yl)-2-((5-methyl-3-(6-methylpyridin-3-yl)isoxazol-4-yl)methyl)pyridazin-3(2H)-one]
3.8 | 70 | 1.7 | COc1cc(-c2cnn(Cc3c(-c4ccc(C)nc4)noc3C)c(=O)c2)ccn1 [Example 107, 5-(2-methoxypyridin-4-yl)-2-((5-methyl-3-(6-methylpyridin-3-yl)isoxazol-4-yl)methyl)pyridazin-3(2H)-one]
2.2 | 195 | 2.95 | CCn1nccc1C1CCN(c2cnn(Cc3c(-c4ccc(C)nc4)noc3C)c(=O)c2)CC1 [Example 167, 5-[4-(2-ethylpyrazol-3-yl)-1-piperidyl]-2-[[5-methyl-3-(6-methyl-3-pyridyl)isoxazol-4-yl]methyl]pyridazin-3-one]
7.8 | 91 | 1.91 | COc1ccc(-c2cnn(Cc3c(-c4ccc(C)nc4)noc3C)c(=O)c2)cc1OC [Example 113, 5-(3,4-dimethoxyphenyl)-2-((5-methyl-3-(6-methyl-3-pyridyl)isoxazol-4-yl)methyl)pyridazin-3-one]

The remaining lines, values behind:

Compound | Ki (h-GABA-A α5β3γ2 [1]) [nM] | Efficacy (GABA) % (h-GABA-A α5β3γ2 [2]) [%] | Fold increase h-GABA-A α5β3γ2 oocyte (h-GABA-A α5β3γ2 [2])
Cc1ccc(-c2noc(C)c2Cn2ncc(N3CC4(CC(C(F)(F)F)CCO4)C3)cc2=O)nn1 (single isomer, unassigned) [Example 311] | 2.4 | 88 | 1.88
C[C@@H]1CN(c2cnn(Cc3c(-c4ccc(Cl)cn4)noc3C3CC3)c(=O)c2)C[C@H](C)O1 [Example 14, 2-((3-(5-Chloropyridin-2-yl)-5-cyclopropylisoxazol-4-yl)methyl)-5-(cis-2,6-dimethylmorpholino)pyridazin-3(2H)-one] | 1.5 | 166 | 2.66
Cc1onc(-c2ccc(Cl)nc2)c1Cn1ncc(N2CCN(c3ccnnc3)CC2)cc1=O [Example 263, 2-((3-(6-chloropyridin-3-yl)-5-methylisoxazol-4-yl)methyl)-5-(4-(pyridazin-4-yl)piperazin-1-yl)pyridazin-3(2H)-one] | 4.2 | 205 | 3.05
Cc1ccc(-c2noc(C)c2Cn2ncc(N3CC(OCC(F)(F)F)C3)cc2=O)cn1 [Example 158, 2-[[5-methyl-3-(6-methyl-3-pyridyl)isoxazol-4-yl]methyl]-5-[3-(2,2,2-trifluoroethoxy)azetidin-1-yl]pyridazin-3-one] | 9.6 | 96 | 1.96
Cc1ccc(-c2noc(C)c2Cn2ncc(N3CC(OC4(C)CC4)C3)cc2=O)nn1 [Example 305, 5-[3-(1-methylcyclopropoxy)azetidin-1-yl]-2-[[5-methyl-3-(6-methylpyridazin-3-yl)isoxazol-4-yl]methyl]pyridazin-3-one] | 2.5 | 100 | 2
Cc1ccc(-c2noc(C)c2Cn2ncc(N3CC4(CCC(C)(C)O4)C3)cc2=O)nn1 [Example 310, 5-(6,6-dimethyl-5-oxa-2-azaspiro[3.4]octan-2-yl)-2-[[5-methyl-3-(6-methylpyridazin-3-yl)isoxazol-4-yl]methyl]pyridazin-3-one] | 14.2 | 105 | 2.05
Cc1ccc(-c2noc(C)c2Cn2ncc(N3CC4(C[C@H](O)CO4)C3)cc2=O)cn1 [Example 131, 5-[(7S)-7-hydroxy-5-oxa-2-azaspiro[3.4]octan-2-yl]-2-[[5-methyl-3-(6-methyl-3-pyridyl)isoxazol-4-yl]methyl]pyridazin-3-one] | 17 | 105 | 2.05
C[C@@H]1CN(c2cnn(Cc3conc3-c3ccc(C(F)(F)F)nc3)c(=O)c2)C[C@H](C)O1 [Example 72, 5-(cis-2,6-dimethylmorpholin-4-yl)-2-[[3-[6-(trifluoromethyl)-3-pyridyl]isoxazol-4-yl]methyl]pyridazin-3-one] | 40.2 | 167 | 2.67
Cc1cc(-c2noc(C)c2Cn2ncc(N3CC(OCC4CC4)C3)cc2=O)no1 [Example 141, 5-[3-(cyclopropylmethoxy)azetidin-1-yl]-2-[[5-methyl-3-(5-methylisoxazol-3-yl)isoxazol-4-yl]methyl]pyridazin-3-one] | 16 | 107 | 2.07
CCc1onc(-c2ccc(C)nn2)c1Cn1ncc(N2CC3(CCC(F)CO3)C2)cc1=O (single isomer, unassigned) [Example 325] | 3.2 | 178 | 2.78
Cc1ccc(-c2noc(C)c2Cn2ncc(N3CCC4(CC3)CC(F)CCO4)cc2=O)nn1 (single isomer, unassigned) [Example 326] | 1.9 | 164 | 2.64
